Laboratory results taken from ChEMBL document CHEMBL3885861, “Open TG-GATES”.

Species: Rattus norvegicus
Assay: Open TG-GATES - Regimen: Daily Repeat
Assay type: toxicity, organism-based, Sprague-Dawley
Set-up: regimen Daily Repeat, gender Male, age 6 weeks
Settings: in vivo, po, route gavage; for Bas / Eos / Fbg / Hb / MCH / MCHC / MCV / Mono / Neu / Plat / RBC / Ret / WBC / APTT / Ht / Lym / PT: tissue Blood; for KIDNEY_L / KIDNEY_R / KIDNEY_TOTAL: tissue Kidney; for LIVER: tissue Liver; for ALP / ALT / AST / BUN / CRE / Ca / DBIL / GLC / IP / K / LDH / Na / PL / RALB / TBIL / TC / TP / gamma-GTP / TG: tissue Plasma
[1] = 0 mg/kg, 72 h, dose level Control, time 3 day
[2] = 0 mg/kg, […], dose level Control, time 7 day
[3] = 0 mg/kg, […], dose level Control, time 14 day
[4] = 0 mg/kg, […], dose level Control, time 28 day
[5] = 100 mg/kg, 72 h, dose level Low, time 3 day
[6] = 100 mg/kg, […], dose level Low, time 7 day
[7] = 100 mg/kg, […], dose level Low, time 14 day
[8] = 100 mg/kg, […], dose level Low, time 28 day

O=C(O)c1cn(C2CC2)c2cc(N3CCNCC3)c(F)cc2c1=O [CIPROFLOXACIN]
TERMINAL_BW [1]: 198.1 g | Bas [1]: 0% | Eos [1]: 1.2% | Fbg [1]: 228 mg/dL | Hb [1]: 13.2 g/dL | MCH [1]: 22.2 pg | MCHC [1]: 33.5% | MCV [1]: 66.2 fL | Mono [1]: 7.6% | Neu [1]: 12% | Plat [1]: 99.9 x10_4/uL | RBC [1]: 595 x10_4/ul | Ret [1]: 8.5% | WBC [1]: 105.1 x10_2/uL | KIDNEY_L [1]: 0.9 g | KIDNEY_R [1]: 0.9 g | KIDNEY_TOTAL [1]: 1.8 g | LIVER [1]: 9.9 g | ALP [1]: 993.2 IU/L | ALT [1]: 38.8 IU/L | AST [1]: 66 IU/L | BUN [1]: 17.2 mg/dL | CRE [1]: 0.5 mg/dL | Ca [1]: 11.4 mg/dL | DBIL [1]: 0.002 mg/dL | GLC [1]: 182 mg/dL | IP [1]: 7.9 mg/dL | K [1]: 5.1 meq/L | LDH [1]: 88.4 IU/L | Na [1]: 139.4 meq/L | PL [1]: 157 mg/dL | RALB [1]: 4 g/dL | TBIL [1]: 0.3 mg/dL | TC [1]: 84 mg/dL | TP [1]: 5.9 g/dL | gamma-GTP [1]: 1.8 IU/L | TERMINAL_BW [2]: 237.8 g | TERMINAL_BW [3]: 285 g | TERMINAL_BW [4]: 358.5 g | APTT [2]: 16.9 s | Bas [2]: 0% | Eos [2]: 0.8% | Fbg [2]: 230.2 mg/dL | Hb [2]: 12.6 g/dL | Ht [2]: 39.6% | Lym [2]: 82.2% | MCH [2]: 20.8 pg | MCHC [2]: 31.8% | MCV [2]: 65.5 fL | Mono [2]: 7% | Neu [2]: 10% | PT [2]: 11.9 s | Plat [2]: 101.9 x10_4/uL | RBC [2]: 605.2 x10_4/ul | Ret [2]: 6.9% | WBC [2]: 121.2 x10_2/uL | APTT [3]: 16.4 s | Bas [3]: 0% | Eos [3]: 1% | Fbg [3]: 250.2 mg/dL | Hb [3]: 14 g/dL | Ht [3]: 42.3% | MCH [3]: 21 pg | MCHC [3]: 33.1% | MCV [3]: 63.3 fL | Mono [3]: 4.4% | Neu [3]: 11% | PT [3]: 9.8 s | Plat [3]: 111.2 x10_4/uL | RBC [3]: 669.4 x10_4/ul | Ret [3]: 5.7% | WBC [3]: 131.2 x10_2/uL | APTT [4]: 17.2 s | Bas [4]: 0% | Eos [4]: 1% | Fbg [4]: 235.2 mg/dL | Hb [4]: 14.8 g/dL | Ht [4]: 44% | MCH [4]: 19.4 pg | MCHC [4]: 33.6% | MCV [4]: 57.8 fL | Mono [4]: 3.4% | Neu [4]: 11% | PT [4]: 11.3 s | Plat [4]: 107.5 x10_4/uL | RBC [4]: 762.2 x10_4/ul | Ret [4]: 2.8% | WBC [4]: 132.8 x10_2/uL | KIDNEY_L [2]: 1.1 g | KIDNEY_R [2]: 1.1 g | KIDNEY_TOTAL [2]: 2.1 g | KIDNEY_L [3]: 1.2 g | KIDNEY_R [3]: 1.2 g | KIDNEY_TOTAL [3]: 2.4 g | KIDNEY_L [4]: 1.3 g | KIDNEY_R [4]: 1.3 g | KIDNEY_TOTAL [4]: 2.5 g | LIVER [2]: 11.7 g | LIVER [3]: 13.3 g | ALP [2]: 938.8 IU/L | ALT [2]: 31.6 IU/L | AST [2]: 61.8 IU/L | BUN [2]: 19.6 mg/dL | CRE [2]: 0.5 mg/dL | Ca [2]: 11.3 mg/dL | DBIL [2]: 0.01 mg/dL | GLC [2]: 186.8 mg/dL | IP [2]: 8.6 mg/dL | K [2]: 5 meq/L | LDH [2]: 67 IU/L | Na [2]: 140.6 meq/L | PL [2]: 158.4 mg/dL | RALB [2]: 3.9 g/dL | TBIL [2]: 0.3 mg/dL | TC [2]: 90.2 mg/dL | TG [2]: 93.6 mg/dL | TP [2]: 5.7 g/dL | gamma-GTP [2]: 1.2 IU/L | ALP [3]: 844.4 IU/L | ALT [3]: 31.4 IU/L | AST [3]: 58.4 IU/L | BUN [3]: 18.8 mg/dL | CRE [3]: 0.6 mg/dL | DBIL [3]: 0.006 mg/dL | GLC [3]: 185.6 mg/dL | IP [3]: 7.9 mg/dL | K [3]: 4.7 meq/L | LDH [3]: 80.6 IU/L | Na [3]: 138.8 meq/L | PL [3]: 172.8 mg/dL | RALB [3]: 4.1 g/dL | TBIL [3]: 0.2 mg/dL | TC [3]: 82.2 mg/dL | TG [3]: 150.6 mg/dL | TP [3]: 6.3 g/dL | gamma-GTP [3]: 1.2 IU/L | ALP [4]: 566.6 IU/L | ALT [4]: 28.8 IU/L | AST [4]: 57.6 IU/L | BUN [4]: 18.8 mg/dL | CRE [4]: 0.4 mg/dL | Ca [4]: 10.7 mg/dL | DBIL [4]: 0.048 mg/dL | GLC [4]: 195.6 mg/dL | IP [4]: 7 mg/dL | K [4]: 4.3 meq/L | LDH [4]: 94.4 IU/L | Na [4]: 140.2 meq/L | PL [4]: 150.6 mg/dL | RALB [4]: 4.1 g/dL | TBIL [4]: 0.3 mg/dL | TC [4]: 75.4 mg/dL | TG [4]: 126.4 mg/dL | TP [4]: 6.6 g/dL | gamma-GTP [4]: 1.4 IU/L | TERMINAL_BW [5]: 197.9 g | APTT [5]: 16.8 s | Bas [5]: 0% | Eos [5]: 1% | Fbg [5]: 236.3 mg/dL | Hb [5]: 13.2 g/dL | Ht [5]: 39.6% | MCV [5]: 63.9 fL | Mono [5]: 6.2% | Neu [5]: 13% | Plat [5]: 90 x10_4/uL | RBC [5]: 621.4 x10_4/ul | Ret [5]: 6.4% | WBC [5]: 94.6 x10_2/uL | KIDNEY_L [5]: 0.9 g | KIDNEY_R [5]: 0.9 g | KIDNEY_TOTAL [5]: 1.8 g | LIVER [5]: 8.9 g | ALP [5]: 806.8 IU/L | ALT [5]: 44.4 IU/L | AST [5]: 64 IU/L | CRE [5]: 0.5 mg/dL | DBIL [5]: 0.012 mg/dL | GLC [5]: 182 mg/dL | IP [5]: 8.4 mg/dL | K [5]: 5.3 meq/L | LDH [5]: 83.2 IU/L | Na [5]: 139 meq/L | PL [5]: 140.6 mg/dL | RALB [5]: 3.8 g/dL | TBIL [5]: 0.3 mg/dL | TC [5]: 78.6 mg/dL | TG [5]: 76.6 mg/dL | TP [5]: 5.6 g/dL | gamma-GTP [5]: 1.6 IU/L | TERMINAL_BW [6]: 227.7 g | TERMINAL_BW [7]: 280.3 g | TERMINAL_BW [8]: 387.5 g | Bas [6]: 0% | Eos [6]: 0.8% | Fbg [6]: 221.6 mg/dL | Hb [6]: 12.9 g/dL | Ht [6]: 38.6% | Lym [6]: 80% | MCH [6]: 21.2 pg | MCV [6]: 63.8 fL | Mono [6]: 5.8% | Neu [6]: 13.8% | Plat [6]: 94 x10_4/uL | RBC [6]: 605.6 x10_4/ul | Ret [6]: 6.4% | WBC [6]: 126.8 x10_2/uL | APTT [7]: 16.3 s | Bas [7]: 0% | Eos [7]: 0.8% | Fbg [7]: 243.6 mg/dL | Hb [7]: 14 g/dL | Ht [7]: 41.8% | Lym [7]: 85.8% | MCHC [7]: 33.4% | MCV [7]: 61.8 fL | Mono [7]: 5.4% | Neu [7]: 8.2% | PT [7]: 10.2 s | Plat [7]: 102.2 x10_4/uL | RBC [7]: 678.2 x10_4/ul | Ret [7]: 6.3% | WBC [7]: 155.4 x10_2/uL | APTT [8]: 17.3 s | Bas [8]: 0% | Eos [8]: 1% | Fbg [8]: 233.2 mg/dL | Hb [8]: 14.7 g/dL | Ht [8]: 44.2% | Lym [8]: 85.2% | MCH [8]: 19.8 pg | MCHC [8]: 33.4% | MCV [8]: 59.3 fL | Mono [8]: 4.4% | Neu [8]: 9.4% | PT [8]: 11.4 s | Plat [8]: 105.1 x10_4/uL | RBC [8]: 746.2 x10_4/ul | Ret [8]: 3% | WBC [8]: 131.4 x10_2/uL | KIDNEY_L [6]: 1 g | KIDNEY_R [6]: 1 g | KIDNEY_TOTAL [6]: 2.1 g | KIDNEY_L [7]: 1.1 g | KIDNEY_R [7]: 1.1 g | KIDNEY_TOTAL [7]: 2.3 g | KIDNEY_L [8]: 1.4 g | KIDNEY_R [8]: 1.4 g | KIDNEY_TOTAL [8]: 2.8 g | LIVER [6]: 10.7 g | LIVER [8]: 15.3 g | ALP [6]: 932.4 IU/L | ALT [6]: 37.2 IU/L | AST [6]: 65.8 IU/L | BUN [6]: 18.2 mg/dL | CRE [6]: 0.5 mg/dL | Ca [6]: 11.4 mg/dL | DBIL [6]: 0 mg/dL | GLC [6]: 184 mg/dL | IP [6]: 8.4 mg/dL | K [6]: 4.9 meq/L | LDH [6]: 56 IU/L | Na [6]: 139.8 meq/L | PL [6]: 149.8 mg/dL | RALB [6]: 3.9 g/dL | TBIL [6]: 0.3 mg/dL | TG [6]: 74.8 mg/dL | TP [6]: 5.8 g/dL | gamma-GTP [6]: 1.6 IU/L | ALP [7]: 887.8 IU/L | ALT [7]: 33 IU/L | AST [7]: 66.4 IU/L | BUN [7]: 21.2 mg/dL | CRE [7]: 0.5 mg/dL | Ca [7]: 10.9 mg/dL | DBIL [7]: 0.022 mg/dL | GLC [7]: 195.6 mg/dL | IP [7]: 8.4 mg/dL | K [7]: 4.9 meq/L | LDH [7]: 88 IU/L | Na [7]: 139.2 meq/L | PL [7]: 175 mg/dL | RALB [7]: 4 g/dL | TBIL [7]: 0.3 mg/dL | TC [7]: 89 mg/dL | TG [7]: 128 mg/dL | TP [7]: 6.1 g/dL | gamma-GTP [7]: 2.2 IU/L | ALP [8]: 630 IU/L | ALT [8]: 29 IU/L | AST [8]: 54.2 IU/L | BUN [8]: 17.8 mg/dL | CRE [8]: 0.4 mg/dL | Ca [8]: 11 mg/dL | DBIL [8]: 0.024 mg/dL | GLC [8]: 185.4 mg/dL | IP [8]: 7.5 mg/dL | K [8]: 4.6 meq/L | LDH [8]: 75.6 IU/L | Na [8]: 140 meq/L | PL [8]: 141.6 mg/dL | RALB [8]: 4 g/dL | TBIL [8]: 0.3 mg/dL | TC [8]: 72.8 mg/dL | TG [8]: 108.8 mg/dL | TP [8]: 6.4 g/dL | gamma-GTP [8]: 1.4 IU/L | TERMINAL_BW (300 mg/kg, 72 h, dose level Middle, time 3 day): 198.3 g
